Laboratory results as given in the NIST ThermoML archive (doi:10.1016/j.jct.2018.08.013).
Several values for one entry are separate records, joined by “and”; a condition that tells them apart may be missing. Equal entries are not always repeated. Numbers after ± are expanded uncertainties.

Columns and labels:
[1] = xn = mol fraction of the nth substance listed; settings: 298 K; 100 kPa; Crystal of intercomponent compound 1; X-ray diffraction; x2 = 0.493
[2] = specific heat capacity at constant pressure; xn = mol fraction of the nth substance listed; settings: 100 kPa, Crystal of intercomponent compound 1, x2 = 0.493

[S] [sulfur] + [Ga]
Settings	mass density [kg/m3]
[1]	3910 ± 30

[2]
Settings	specific heat capacity
18.16 K, relaxation calorimetry	12.05 ± 0.95 J/K/kg
18.18 K, relaxation calorimetry	12.12 ± 0.95 J/K/kg
20.17 K, relaxation calorimetry	16.52 ± 1.2 J/K/kg
20.2 K, relaxation calorimetry	16.6 ± 1.2 J/K/kg
22.19 K, relaxation calorimetry	21.61 ± 1.4 J/K/kg
22.22 K, relaxation calorimetry	21.71 ± 1.4 J/K/kg and 21.72 ± 1.4 J/K/kg
24.21 K, relaxation calorimetry	27.33 ± 1.6 J/K/kg
24.24 K, relaxation calorimetry	27.43 ± 1.6 J/K/kg and 27.44 ± 1.6 J/K/kg
26.24 K, relaxation calorimetry	33.49 ± 1.8 J/K/kg
26.26 K, relaxation calorimetry	33.58 ± 1.8 J/K/kg
28.24 K, relaxation calorimetry	39.83 ± 2.1 J/K/kg
28.26 K, relaxation calorimetry	39.94 ± 2.1 J/K/kg
28.27 K, relaxation calorimetry	39.95 ± 2.1 J/K/kg
30.29 K, relaxation calorimetry	46.52 ± 2.3 J/K/kg and 46.51 ± 2.3 J/K/kg
35.28 K, relaxation calorimetry	63.34 ± 2.9 J/K/kg
35.34 K, relaxation calorimetry	63.61 ± 2.9 J/K/kg and 63.51 ± 2.9 J/K/kg
40.32 K, relaxation calorimetry	80.08 ± 3.5 J/K/kg
40.39 K, relaxation calorimetry	80.21 ± 3.5 J/K/kg
40.4 K, relaxation calorimetry	80.32 ± 3.5 J/K/kg
45.38 K, relaxation calorimetry	96.1 ± 4.1 J/K/kg
45.44 K, relaxation calorimetry	96.06 ± 4.1 J/K/kg
45.46 K, relaxation calorimetry	96.26 ± 4.1 J/K/kg
50.44 K, relaxation calorimetry	111.7 ± 4.7 J/K/kg
50.47 K, relaxation calorimetry	111.6 ± 4.7 J/K/kg
50.51 K, relaxation calorimetry	111.7 ± 4.7 J/K/kg
55.47 K, relaxation calorimetry	126.24 ± 5.2 J/K/kg
55.51 K, relaxation calorimetry	125.95 ± 5.2 J/K/kg
55.55 K, relaxation calorimetry	126.24 ± 5.2 J/K/kg
60.51 K, relaxation calorimetry	140.09 ± 5.8 J/K/kg
60.55 K, relaxation calorimetry	139.99 ± 5.8 J/K/kg
60.58 K, relaxation calorimetry	139.99 ± 5.8 J/K/kg
65.57 K, relaxation calorimetry	154.14 ± 6.4 J/K/kg
65.59 K, relaxation calorimetry	154.04 ± 6.4 J/K/kg
65.63 K, relaxation calorimetry	154.04 ± 6.4 J/K/kg
70.62 K, relaxation calorimetry	167.6 ± 6.9 J/K/kg
70.63 K, relaxation calorimetry	167.6 ± 6.9 J/K/kg
70.66 K, relaxation calorimetry	167.5 ± 6.9 J/K/kg
75.65 K, relaxation calorimetry	180.57 ± 7.4 J/K/kg
75.68 K, relaxation calorimetry	180.86 ± 7.5 J/K/kg
75.7 K, relaxation calorimetry	180.47 ± 7.4 J/K/kg
80.7 K, relaxation calorimetry	194.32 ± 8 J/K/kg
80.73 K, relaxation calorimetry	194.42 ± 8 J/K/kg
80.74 K, relaxation calorimetry	194.32 ± 8 J/K/kg
85.74 K, relaxation calorimetry	207.39 ± 8.4 J/K/kg
85.77 K, relaxation calorimetry	207.39 ± 8.4 J/K/kg
85.78 K, relaxation calorimetry	207.39 ± 8.4 J/K/kg
90.77 K, relaxation calorimetry	220.55 ± 9 J/K/kg
90.8 K, relaxation calorimetry	220.26 ± 9 J/K/kg and 220.45 ± 9 J/K/kg
95.75 K, relaxation calorimetry	232.24 ± 9.4 J/K/kg
95.79 K, relaxation calorimetry	231.95 ± 9.4 J/K/kg
95.82 K, relaxation calorimetry	231.85 ± 9.4 J/K/kg
100.8 K, relaxation calorimetry	243.64 ± 9.9 J/K/kg
100.86 K, relaxation calorimetry	242.85 ± 9.9 J/K/kg
100.91 K, relaxation calorimetry	243.05 ± 9.9 J/K/kg
106.88 K, relaxation calorimetry	257.1 ± 11 J/K/kg and 257.39 ± 11 J/K/kg
107.03 K, relaxation calorimetry	256.21 ± 10 J/K/kg
113.66 K, relaxation calorimetry	272.42 ± 11 J/K/kg
113.82 K, relaxation calorimetry	273.11 ± 11 J/K/kg
113.94 K, relaxation calorimetry	271.54 ± 11 J/K/kg
120.64 K, relaxation calorimetry	286.47 ± 12 J/K/kg
120.83 K, relaxation calorimetry	286.96 ± 12 J/K/kg
120.89 K, relaxation calorimetry	285.1 ± 12 J/K/kg
127.82 K, relaxation calorimetry	298.56 ± 12 J/K/kg
127.84 K, relaxation calorimetry	298.36 ± 12 J/K/kg
134.78 K, relaxation calorimetry	310.93 ± 13 J/K/kg
134.8 K, relaxation calorimetry	310.34 ± 13 J/K/kg
134.81 K, relaxation calorimetry	310.25 ± 13 J/K/kg
141.61 K, relaxation calorimetry	324 ± 13 J/K/kg
141.75 K, relaxation calorimetry	322.43 ± 13 J/K/kg
141.83 K, relaxation calorimetry	321.94 ± 13 J/K/kg
148.61 K, relaxation calorimetry	333.53 ± 14 J/K/kg
148.72 K, relaxation calorimetry	332.15 ± 13 J/K/kg
148.84 K, relaxation calorimetry	330.48 ± 13 J/K/kg
155.54 K, relaxation calorimetry	342.37 ± 14 J/K/kg
155.64 K, relaxation calorimetry	340.7 ± 14 J/K/kg
155.72 K, relaxation calorimetry	339.33 ± 14 J/K/kg
162.61 K, relaxation calorimetry	350.82 ± 14 J/K/kg
162.66 K, relaxation calorimetry	349.74 ± 14 J/K/kg
162.73 K, relaxation calorimetry	349.64 ± 14 J/K/kg
169.57 K, relaxation calorimetry	360.25 ± 15 J/K/kg
169.65 K, relaxation calorimetry	358.19 ± 15 J/K/kg
169.72 K, relaxation calorimetry	359.07 ± 15 J/K/kg
176.58 K, relaxation calorimetry	367.72 ± 15 J/K/kg
176.67 K, relaxation calorimetry	367.72 ± 15 J/K/kg
176.69 K, relaxation calorimetry	362.51 ± 15 J/K/kg
183.46 K, relaxation calorimetry	377.05 ± 15 J/K/kg
183.56 K, relaxation calorimetry	375.87 ± 15 J/K/kg
183.6 K, relaxation calorimetry	370.67 ± 15 J/K/kg
190.49 K, relaxation calorimetry	383.83 ± 16 J/K/kg
190.59 K, relaxation calorimetry	383.53 ± 16 J/K/kg
190.65 K, relaxation calorimetry	378.13 ± 15 J/K/kg
197.48 K, relaxation calorimetry	388.94 ± 16 J/K/kg
197.53 K, relaxation calorimetry	389.63 ± 16 J/K/kg
197.63 K, relaxation calorimetry	385.2 ± 16 J/K/kg
204.39 K, relaxation calorimetry	394.64 ± 16 J/K/kg
204.41 K, relaxation calorimetry	396.21 ± 16 J/K/kg
204.53 K, relaxation calorimetry	392.18 ± 16 J/K/kg
211.42 K, relaxation calorimetry	400.83 ± 16 J/K/kg
211.46 K, relaxation calorimetry	401.71 ± 16 J/K/kg
211.56 K, relaxation calorimetry	397.19 ± 16 J/K/kg
218.3 K, relaxation calorimetry	405.64 ± 17 J/K/kg
218.34 K, relaxation calorimetry	407.41 ± 17 J/K/kg
218.45 K, relaxation calorimetry	402.99 ± 16 J/K/kg
225.38 K, relaxation calorimetry	410.35 ± 17 J/K/kg and 412.32 ± 17 J/K/kg
225.51 K, relaxation calorimetry	408.68 ± 17 J/K/kg
232.24 K, relaxation calorimetry	414.68 ± 17 J/K/kg and 416.64 ± 17 J/K/kg
232.38 K, relaxation calorimetry	412.81 ± 17 J/K/kg
239.31 K, relaxation calorimetry	418.61 ± 17 J/K/kg and 420.57 ± 17 J/K/kg
239.44 K, relaxation calorimetry	416.94 ± 17 J/K/kg
246.17 K, relaxation calorimetry	422.44 ± 17 J/K/kg
246.31 K, relaxation calorimetry	420.96 ± 17 J/K/kg
253.25 K, relaxation calorimetry	426.56 ± 17 J/K/kg
253.26 K, relaxation calorimetry	424.99 ± 17 J/K/kg
253.37 K, relaxation calorimetry	424.7 ± 17 J/K/kg
260.11 K, relaxation calorimetry	428.53 ± 17 J/K/kg and 430.1 ± 17 J/K/kg
260.22 K, relaxation calorimetry	427.94 ± 17 J/K/kg
260.51 K, Extra sensitive DSC	429.81 ± 17 J/K/kg
263.12 K, Extra sensitive DSC	432.26 ± 17 J/K/kg
265.73 K, Extra sensitive DSC	432.66 ± 17 J/K/kg
267.18 K, relaxation calorimetry	432.16 ± 18 J/K/kg and 433.25 ± 18 J/K/kg
267.28 K, relaxation calorimetry	431.28 ± 17 J/K/kg
268.33 K, Extra sensitive DSC	434.33 ± 17 J/K/kg
270.07 K, Extra sensitive DSC	435.41 ± 17 J/K/kg
273.54 K, Extra sensitive DSC	436.78 ± 17 J/K/kg
274.03 K, relaxation calorimetry	435.6 ± 18 J/K/kg and 437.27 ± 18 J/K/kg
274.12 K, relaxation calorimetry	434.33 ± 18 J/K/kg
276.15 K, Extra sensitive DSC	437.37 ± 17 J/K/kg
279.62 K, Extra sensitive DSC	439.04 ± 17 J/K/kg
281.12 K, relaxation calorimetry	440.32 ± 18 J/K/kg
281.13 K, relaxation calorimetry	440.12 ± 18 J/K/kg
281.19 K, relaxation calorimetry	438.35 ± 18 J/K/kg
283.09 K, Extra sensitive DSC	440.42 ± 17 J/K/kg
285.7 K, Extra sensitive DSC	441.4 ± 17 J/K/kg
287.94 K, relaxation calorimetry	442.87 ± 18 J/K/kg
287.95 K, relaxation calorimetry	442.09 ± 18 J/K/kg
288.02 K, relaxation calorimetry	441.2 ± 18 J/K/kg
289.17 K, Extra sensitive DSC	442.77 ± 17 J/K/kg
292.64 K, Extra sensitive DSC	444.15 ± 17 J/K/kg
295 K, relaxation calorimetry	443.07 ± 18 J/K/kg and 444.35 ± 18 J/K/kg
295.08 K, relaxation calorimetry	443.46 ± 18 J/K/kg
295.25 K, Extra sensitive DSC	444.64 ± 17 J/K/kg
297.85 K, Extra sensitive DSC	445.72 ± 17 J/K/kg
300.45 K, Extra sensitive DSC	446.61 ± 17 J/K/kg
301.99 K, relaxation calorimetry	450.73 ± 18 J/K/kg
302 K, relaxation calorimetry	450.83 ± 18 J/K/kg
302.09 K, relaxation calorimetry	445.23 ± 18 J/K/kg
303.06 K, Extra sensitive DSC	447.88 ± 17 J/K/kg
305.66 K, Extra sensitive DSC	448.77 ± 17 J/K/kg
308.26 K, Extra sensitive DSC	449.75 ± 17 J/K/kg
310.87 K, Extra sensitive DSC	450.44 ± 17 J/K/kg
313.47 K, Extra sensitive DSC	451.52 ± 17 J/K/kg
315.21 K, Extra sensitive DSC	452.11 ± 17 J/K/kg
317.81 K, Extra sensitive DSC	452.3 ± 17 J/K/kg
320.41 K, Extra sensitive DSC	453.09 ± 18 J/K/kg
323.02 K, Extra sensitive DSC	453.29 ± 18 J/K/kg
325.62 K, Extra sensitive DSC	454.17 ± 18 J/K/kg
328.23 K, Extra sensitive DSC	455.45 ± 18 J/K/kg
329.96 K, Extra sensitive DSC	455.35 ± 18 J/K/kg
332.56 K, Extra sensitive DSC	455.84 ± 18 J/K/kg
335.17 K, Extra sensitive DSC	456.53 ± 18 J/K/kg
337.77 K, Extra sensitive DSC	457.22 ± 18 J/K/kg
340.38 K, Extra sensitive DSC	458.2 ± 18 J/K/kg
342.98 K, Extra sensitive DSC	459.18 ± 18 J/K/kg
345.58 K, Extra sensitive DSC	459.28 ± 18 J/K/kg
348.19 K, Extra sensitive DSC	460.46 ± 18 J/K/kg
350.79 K, Extra sensitive DSC	461.15 ± 18 J/K/kg
353.39 K, Extra sensitive DSC	460.75 ± 18 J/K/kg
356 K, Extra sensitive DSC	461.93 ± 18 J/K/kg
358.6 K, Extra sensitive DSC	462.72 ± 18 J/K/kg
